The text below walks through data of US7829586B2, “Aryl-substituted nitrogen-containing heterocyclic compounds” (Banyu Pharmaceutical Co., Ltd., priority 2005, dated 2010).

SMILES strings stand for the structures. pIC50: −log10 of the molar value.

Experiment [1] concerns the target T1, nociceptin receptor ORL1 (Homo sapiens, UniProt P41146). Description: Antagonism against nociceptin-elicited G protein activation (GTPγ[35S] binding, CHO/ORL1 membranes). The experiment is classed as biochemical. Details: expressed in transfected cells; membrane preparation. The conditions noted are these: CHO/ORL1 membrane, 50 nM nociceptin, 200 pM GTPγ[35S], 25° C., 150 minutes. As for the experimental part: Antagonism Against Nociceptin-Elicited G Protein Activation
CHO cells which stably expressed a nociceptin receptor ORL1 were used to investigate the action of each test compound against nociceptin-elicited G protein activation. A membrane prepared from the CHO/ORL1 cells, 50 nM nociceptin, 200 pM GTPγ[^35S] (by NEN), 1.5 mg of wheatgerm agglutinin SPA beads (by Amersham Pharmacia) and each test compound were mixed in a GDP buffer (20 mM Hepes, 100 mM sodium chloride, 10 mM magnesium chloride, 1 mM EDTA, 5 μM GDP, pH 7.4) and incubated at 25° C. for 150 minutes, and then the radioactivity was determined. The antagonism against the nociceptin-elicited G protein activation was shown by the 50% inhibition concentration (IC50 value) of the test compound against GTPγ[^35S] binding.

The target in experiment [2] is T1, nociceptin receptor ORL1. The experiment in a line: Nociceptin receptor binding inhibition assay ([125I]Tyr14-Nociceptin, CHO/ORL1 membrane fractions, SPA). The conditions noted are these: CHO/ORL1 membrane fraction, 50 pM [125I]Tyr14-Nociceptin, 37° C., 60 minutes. Details: expressed in transfected cells; membrane fractions. The protocol:
Nociceptin Receptor Binding Inhibition Assay
A cDNA that codes for a human nociceptin receptor gene was cloned into an expression vector pCR3 (by Invitrogen) to prepare pCR3/ORL1. Next, pCR3/ORL1 was transfected in CHO cells using a transfectam (by Nippongene) to obtain a stable expression strain (CHO/ORL1 cells) having resistance against 1 mg/ml G418. Membrane fractions were prepared from this stable expression strain to carry out a receptor binding assay. 11 μg of the membrane fraction, 50 pM [^125I]Tyr^14-Nociceptin (by Amersham Pharmacia), 1 mg of wheatgerm agglutinin SPA beads (PVT based, by Amersham Pharmacia) and each test compound were suspended in an NC buffer (50 mM Hepes, 10 mM sodium chloride, 1 mM magnesium chloride, 2.5 mM calcium chloride, 0.1% BSA, 0.025% bacitracin, pH 7.4) and incubated at 37° C. for 60 minutes, and then the radioactivity of the culture was determined. The binding activity to the nociceptin receptor was indicated by the 50% inhibition concentration (IC50 value) of [^125I]Tyr^14-Nociceptin binding by each test compound.

T1 sequence (P41146 whole entry): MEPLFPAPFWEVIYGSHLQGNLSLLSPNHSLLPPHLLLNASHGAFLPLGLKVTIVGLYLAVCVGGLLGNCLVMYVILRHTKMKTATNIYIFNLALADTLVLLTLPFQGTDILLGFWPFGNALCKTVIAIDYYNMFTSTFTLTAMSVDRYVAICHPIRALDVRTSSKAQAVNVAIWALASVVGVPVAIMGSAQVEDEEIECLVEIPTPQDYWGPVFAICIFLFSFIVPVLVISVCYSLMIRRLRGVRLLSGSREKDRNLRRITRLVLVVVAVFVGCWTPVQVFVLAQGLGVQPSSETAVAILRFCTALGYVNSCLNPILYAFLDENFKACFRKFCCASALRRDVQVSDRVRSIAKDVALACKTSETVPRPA

On to `Cc1c(CN[C@H]2CC[C@@H](F)C2)n[nH]c1-c1cc(F)cc(F)c1` [Example 8, 5-(3,5-Difluorophenyl)-3-[(1S,3R)-3-fluorocyclopentylamino]methyl-4-methyl-1H-pyrazole], for which the negative logarithm of the IC50 (pIC50) on nociceptin receptor ORL1 [1] and on nociceptin receptor ORL1 [2] was 8.12 in each case.

As for `COCc1c(CN[C@H]2CC[C@@H](F)C2)n[nH]c1-c1cc(F)cc(F)c1` [Example 19, 5-(3,5-Difluorophenyl)-3-[(1S,3R)-3-fluorocyclopentylamino]methyl-4-methoxymethyl-1H-pyrazole], the negative logarithm of the IC50 (pIC50) was 9.33 at nociceptin receptor ORL1 [1] and 9.21 on nociceptin receptor ORL1 [2].

`Cc1ncc(-c2c(C)c(CN[C@H]3CC[C@@H](F)C3)nn2C(C)C)cc1F` [Example 2, 3-[(1S,3R)-3-fluorocyclopentylamino]methyl-5-(5-fluoro-6-methylpyridin-3-yl)-1-isopropyl-4-methyl-1H-pyrazole]: the figures for the pIC50 at nociceptin receptor ORL1 [1] and on nociceptin receptor ORL1 [2] were 9.21 and 9.04, respectively.

With `COCc1c(CN[C@H]2CC[C@@H](OC)CC2)n[nH]c1-c1cc(F)cc(F)c1` [Example 34, 5-(3,5-Difluorophenyl)-3-(cis-4-methoxycyclohexylamino)methyl-4-methoxymethyl-1H-pyrazole], the pIC50 on nociceptin receptor ORL1 [1] is 9.22; at nociceptin receptor ORL1 [2], 8.96.

For `Cc1c(CN[C@H]2CC[C@@H](F)C2)nn(CCC#N)c1-c1cc(F)cc(F)c1` [Example 13, 1-(2-Cyanoethyl)-5-(3,5-difluorophenyl)-3-[(1S,3R)-3-fluorocyclopentylamino]methyl-4-methyl-1H-pyrazole], the values for the negative logarithm of the IC50 (pIC50) at nociceptin receptor ORL1 [1] and on nociceptin receptor ORL1 [2] were 8.34 and 8.09, respectively.

Consider `CCc1c(CN[C@H]2CC[C@@H](F)CC2)nc(C)n1-c1cc(F)cc(F)c1` [Example 38, 1-(3,5-Difluorophenyl)-4-(cis-4-fluorocyclohexylamino)methyl-5-ethyl-2-methyl-1H-imidazole], for which the figures for the pIC50 on nociceptin receptor ORL1 [1] and at nociceptin receptor ORL1 [2] were 8.22 and 8.17, respectively.
